Assay results as given in patent publication US6353015B1, “Method of treating neurodegenerative disorders” (St. Elizabeth's Medical Center, priority 1998, dated 2002).
Entries after “also recorded” stand apart in the source; their conditions may differ. Where two headings read alike, the source gives them in different places. No end group written: not given here.

How the values were obtained:
cerebellar granule cells = assay: βAP 25-35 toxicity assay in mature cerebellar granule cell cultures (Example 5); type: cell-based, rat; conditions: for increase of the amount of living CGC, compound alone: concentration range 25-200 μM; for protective effect against the toxicity of βAP 25-35 (in words): mature cultures, 8 DIV; for protection of neurons against βAP: compound at 25 μM
Procedure: FIG. 8. […] The difference in numbers of living neurons before and after 4 days of treatment were determined. The amount of viable neurons is expressed as mean (%) above viable in preliminary photography of the same place. Experiments were repeated 2-3 times (n=12-18). For graphical presentation, average data from representative experiments were converted to percentages of control groups viability. Results were expressed as a percentage of survival cells to compare with control ±SEM and were analyzed by a statistical test (ANOVA).
Cerebellar granule cells (CGC) were prepared from the postnatal rats (7-8 days old) by the following procedure based on the generally accepted methods (V. Gallo et al., J. Neurosci. 7:2203-2213, 1987). The pieces of cerebellum were digested with 0,25 mg/ml trypsin for 25 min. at 37° C. and incubated for 5 min. in 0.1% soybean trypsin inhibitor. After washing, cells were dissociated by triturating. Following two centrifugation-resuspension steps, the cells were plated at a density of 2.5-[…] cells per ml on polylysine-coated 24-well plates (Corning) and maintained at 37° C. in a humidified incubator with 5% CO2/95% room air. The medium was composed of Eagle's minimal essential medium and fetal calf serum (10%) supplemented with 20 mM potassium chloride, 10 mM glucose, 2 mM glutainine, 50 μg/ml gentamycin sulfate. Cytosine arabinoside (10 μM) was added 24-48 h later to prevent the replication of non-neuronal cells.
The βAP 25-35 (Bachem) was dissolved by sonication in sterilized distilled water at a concentration of 1 mM. […]
Neuronal viability was evaluated by morphometric cell counting using the presence of neurites and smooth, round cell bodies as criteria of survival. The cells were examined under the phase-contrast microscope Axiovert 25C with videocamera and Software miroMedia PCTV VideoCap program for image scanning and photography. Cell survival was quantified by counting the number of viable neurons in premarked microscope fields prior to, and 4 days after the exposure. The difference in numbers of living neurons before and after 4 days of treatment was determined.
For each experiment, we used 4-6 separate wells of a 24-well multiwell plate for control (with 0.05% DMSO)and for each concentration of compound or composition of compound with βAP. Each well equals one observation, (average of 25 cells per microscope field). Experiments are repeated 2-3 times (n=12-18). For graphical presentation, average data from representative experiments were expressed as a percentage of survival cells in comparison with control ±SEM and analyzed by ANOVA and Student t-test.

AF64A-treated rats [1] = conditions: rat, in vivo; for Correct responses, % Learning test / Correct responses, % Retention test: po
[2] = in rats; Oxenkrug et al. 1994; cited from earlier work
[3] = test system: Cerebellar granule cells (CGC); assay: Survival of cerebellar granule cells with amyloid beta-protein (Example 4); type: cell-based, rat; set-up: dose or concentration left out as unconfirmed; conditions: 72 hr
Procedure: Cerebellar granule cells (CGC) obtained from brains of 8-day rat pups were maintained in culture. The amyloid beta-protein (βAP) and/or NAS derivative (DNAS-18) were added to CGC for a period of 72 hr. Vehicle solution was added to CGC in the control experiments. Survival of CGS was assessed by lactate dehydrogenase method and by visual counting of living neurons.

mouse = assay: Mouse tail suspension test; conditions: in vivo
Description: The combination of cognition-enhancing and antidepressant effect in the one and the same compound might be of additional therapeutic advantage.

Antihypertensive effect = conditions: in vivo
AF64A-treated rats [4] = assay: Morris water maze test; type: in vivo, rat; conditions: 0.3 mg/kg daily orally; day 1 and day 5
Procedure: FIGS. 7A and 7B Average swim latency made by rats, when trained 1 (A) and […] to find a platform in Morris water maze test. […] Results were estimated as time required for rat felt into a water pool to reach a platform;**−[…], ***−p<0.001 vs. AF64A-treated group, where p is the significance level (post hoc ANOVA).
The test was started 2 days after the last injection of tested compounds and was performed daily for the period from 3 to 9 day. Round swimming pool (1,8 m diameter and 0,45 m high) with 22° C. water was placed in the center of the room. The platform was located 1 cm below the surface of the water. Starting points for the swims were at the cardinal compass points (N, S, E, W), which were selected in a semi-random fashion for each rat on each trial.
Each experimental group, i.e., control, AF64A-treated groups and groups for each concentration of the tested compounds, contained 9-11 rats. Results were estimated as time required for rat felt into a water pool to reach a platform (a sum of two trials from different position every day). Data were analyzed as the mean±SEM. (ANOVA followed by post hoc comparisons).

rats = assay: Observation of sedative effect during oral treatment
AF64A-treated rats [5] = assay: Two-way shuttle box avoidance, learning and retention tests (Example 3); type: in vivo, rat
[6] = 3 mg/kg p.o. for 12 days after AF64A i.c.v. 3 nmol/ventricle

Row | Compound | comparative efficacy in preventing βAP toxicity (cerebellar granule cells) | increase of the amount of living CGC, compound alone (cerebellar granule cells) | protective effect against the toxicity of βAP 25-35 (in words) (cerebellar granule cells; 4 days) | cognitive performance of AF64A-treated rats in active avoidance and in water-maze tests (summary) (AF64A-treated rats [1]) | performance in learning paradigm of the active avoidance test (in words) (AF64A-treated rats [1]) | performance in retention paradigm of the active avoidance test (in words) (AF64A-treated rats [1]) | Correct responses, % Learning test (AF64A-treated rats [1]; 1 mg/kg) | Correct responses, % Retention test (AF64A-treated rats [1]; 1 mg/kg) | protection of neurons against βAP (cerebellar granule cells; 25 μM βAP) | antidepressant-like activity (decreasing the duration of immobility) (mouse) | melting point | Correct responses, % Learning test (AF64A-treated rats [1]; 0.3 mg/kg) | Correct responses, % Retention test (AF64A-treated rats [1]; 0.3 mg/kg) | antihypertensive effect (Antihypertensive effect) | response time (swim latency to platform) (AF64A-treated rats [4]) | sedative effect (rats; 0.3 mg/kg orally daily) | Correct responses, % Learning test (AF64A-treated rats [1]; 3 mg/kg) | Correct responses, % Retention test (AF64A-treated rats [1]; 3 mg/kg) | also measured
1 | CC(=O)NCCc1c[nH]c2ccc(O)cc12 [NAS, N-acetylserotonin] | strongest | 16-28 % of control | exerted a neuroprotective effect; also recorded: Protective effect | improve cognitive performance | improved the performance | not in retention | 65.4 ± 8.8 % | 56.0 ± 9.2 % |  |  |  |  |  |  |  |  |  |  | viable neurons, co-incubation with βAP (cerebellar granule cells; 25 μM compound): 101±5 % of control; conversion of NAS into melatonin [2]: rapidly converted into melatonin
2 | CCCC(=O)NCCc1c[nH]c2ccc(OCc3ccccc3)cc12 [CA-18, N-[2-(5-Benzyloxyindol-3-yl)ethyl] butanamide] |  |  | exerted a neuroprotective effect | improve cognitive performance | completely restored; also recorded: strong tendency (although not reaching the level of statistical significance) towards the improvement |  | 50.0 ± 8.8% | 48.1 ± 9.8% | 93% | antidepressant-like effects | 112 to 114 °C | 84.0 ± 5.4 % | 82.7 ± 5.0 % | antihypertensive | decreased the response time | did not induced sedation |  |  | viability of neurons, compound added to βAP [3]: 98±4 % of control; increase of viability of CGC neurons, compound alone ([3]; mean±S.E.): 18±3 % of control; antidepressant-like activity, comparison CA-18 with CA-15 (mouse): more pronounced; sedative effect (rats; 1 mg/kg orally daily): did not induced sedation
3 | GSNKGAIIGLM [βAP, reference compound] |  |  |  |  |  |  |  |  |  |  |  |  |  |  |  |  |  |  | viability of neurons exposed to βAP alone (cerebellar granule cells; 25 μM βAP, 4 days, mean ±SEM): 58±7 % of control; viability of CGC neurons with βAP alone ([3]; βAP, mean±S.E.): 56±8 % of control
4 | CCC(=O)NCCc1c[nH]c2ccc(OCc3ccccc3)cc12 [CA-15, N-[2-(5-Benzyloxyindol-3-yl)ethyl]propanamide] |  |  | exerted a neuroprotective effect; also recorded: Protective effect | improve cognitive performance | strong tendency (although not reaching the level of statistical significance) towards the improvement | improved the performance |  |  |  | antidepressant-like effects | 110 to 112 °C |  |  | antihypertensive |  |  | 61.4 ± 7.4% | 68.0 ± 8.4 % | duration of cognition-enhancing effect in retention test after the learning trials (AF64A-treated rats [5]; 3 mg/kg p.o. for 12 days after AF64A): ≥ 10 days; number of correct responses, learning test (in words) (AF64A-treated rats [5]; [6]): almost completely restored; number of correct responses, retention test (in words) (AF64A-treated rats [5]; [6]): almost completely restored
5 | COc1ccc2[nH]cc(CCNC(C)=O)c2c1 [Melatonin, reference compound] | less effective | 3-10 % of control | Protective effect | improve cognitive performance | completely restored; also recorded: significant but somewhat less pronounced | completely restored; also recorded: significant but somewhat less pronounced |  |  | 90% |  |  | 79.0 ± 6.0 % | 83.2 ± 3.2 % |  | decreased the response time | did not induced sedation | 75.4 ± 7.0 % | 72.2 ± 5.8 % | protective effect against the toxicity of βAP 25-35 (in words) (cerebellar granule cells; 4 days, listed as melatonin): exerted a neuroprotective effect; onset of sedative effect (rats; 3 mg/kg orally daily): 3-4 days of treatment; sedative effect (rats; 3 mg/kg orally daily): unspecified sedative effect
